Measurements from patent US8410161B2, “Thioxanthone ring system derivatives” (National Defense Medical Center, priority 2010, dated 2013).

Key:
Type in all cases: cell-based
[1] = MTT assay, HEL299 fibroblast; conditions: human
Source text: (§1) Please refer to FIG. 4C, various cell viabilities of the HEL299 cell lines can be obtained through the MTT assay while the compounds No. 1˜30 are used to treat HEL299 cell lines, wherein HEL299 cell lines are fibroblast.

[2] = system: HEL299 fibroblast; assay: MTT assay, HEL299 fibroblast
Source text: as §1

[3] = system: A control cell lines; assay: MTT assay, A control cell lines (lung cancer cell)
Source text: Please refer to Table 1 and FIGS. 4A-4C. According to a MTT assay (Table 1), various cell viabilities of the A control cell lines can be obtained and illustrated in FIG. 4A while the compounds No. 2˜30 are used to treat A control cell lines, wherein A control cell lines are lung cancer cell.

[4] = system: A3 cell lines; assay: MTT assay, A3 cell lines (lung cancer stem cell)
Source text: Please to FIG. 4B, various cell viabilities of the A3 cell lines can be obtained through the MTT assay and illustrated in FIG. 4B while the compounds No. 1˜30 are used to treat A3 cell lines, wherein A3 cell lines are lung cancer stem cell.

[5] = summary of MTT cell viabilities

With O=c1c2ccccc2sc2c(Cl)c(SCc3ccc(Br)cc3)ccc12 [No. 25, 3-(4-Bromobenzylthio)-4-chloro-9H-thioxanthen-9-one] the viability [1] was 79.3%, the “cytotoxicity effect on the normal fibroblast (in words)” value [2] was “without the cytotoxicity effect” and the “cell viabilities of A control cell lines (MTT assay)” value [3] was 40.8%. The “inhibition effect on A control cell line (in words)” value [3, 5] was “inhibition effect”, the “cell viabilities of A3 cell lines (MTT assay)” value [4] was 61.5% and the “inhibition effect on A3 cell line (in words)” value [4, 5] was “inhibition effect”.
